Where “and” joins values, the source holds several entries; their conditions need not be identical. Equal values may be shown once.
Experiments:
Assay type in all cases: in vivo, CD-1 mice
haptoglobin mRNA [1] = assay: Liver haptoglobin mRNA (RT-PCR)
Procedure: (§1) Thirty-two mice were divided into 4 equal groups: (1) control mice; (2) mice treated with 1 mg of N-Mgb injection (as a bolus through the tail vein); (3) mice treated with […] of SnPP (via tail vein); and (4) mice treated with combined N-Mgb 1 SnPP. After either 4 hours (n=16) or 18 hours (n=16), the mice were deeply anesthetized with pentobarbital (50 mg/kg), the abdomen was opened through a midline abdominal incision, and the kidneys were removed. To determine potential effects on extrarenal organs, a liver lobe and the heart were also removed. The tissues were iced and then extracted for protein and RNA (RNeasy Plus Mini; Qiagen, Valencia, Calif.) and subjected to enzyme linked immunosorbent assay (ELISA) and reverse transcriptase polymerase chain reaction (RT-PCR) for HO-1, haptoglobin, and IL-10 protein and messenger RNAs (mRNAs). Zager et al. J Am Soc Nephrol 2014; 25:998-1012; Zager et al. Am J Physiol 2012; 303:F139-48. As an assessment of renal function, control mice and the 18 hour after N-Mgb+SnPP-treated mice had blood urea nitrogen (BUN) and plasma creatinine levels measured. Additionally, transverse 10% formalin fixed kidney sections ([…]) were cut and stained with hematoxylin and eosin (H&E) and periodic acid Schiff (PAS) to further assess potential injury.

haptoglobin protein [2] = assay: Liver haptoglobin protein (ELISA); design: unit not given beside the values
Procedure: as §1

HO-1 mRNA = assay: Renal HO-1 mRNA (RT-PCR, HO-1/GAPDH) after IV myoglobin, SnPP or both; details: kidney, 4 hr post IV injection
Source text: The Glycerol Model of AKI. This is a widely used model of rhabdomyolysis-induced AKI that has been employed worldwide for 50 years. The model was used to test whether prophylactic interventions confer protection against AKI. Basically, the protocol is as follows: Male CD-1 mice (35-45 grams), obtained from Charles River Laboratories, Wilmington, Mass. were studied. Mice were maintained under standard vivarium conditions and generally housed for 1-3 weeks prior to study. The mice were placed in a cylindrical restraining cage, and then were given a tail vein injection of the test substances (see below) or test substance vehicle. The mice were then returned to their cages. Eighteen hours (hrs) later, the mice were briefly anesthetized by isoflurane inhalation, and given an intramuscular injection of hypertonic (50%) glycerol in a dose of 9 ml/Kg body weight. The dose is divided in two, with half injected into the muscle of each of the hind limbs. The mice were then returned to their cages. Eighteen hrs later, the mice were deeply anesthetized with pentobarbital (50-100 mg/Kg), the abdominal cavity was opened through a midline abdominal incision, a blood sample was obtained from the abdominal vena cava and the kidneys were resected. A kidney cross section was obtained and fixed in formalin for subsequent histologic analysis. The terminal blood samples were analyzed for BUN and creatinine, using commercially available assay kits. The remaining kidney tissue was subjected to cortical dissection, and the cortical tissues were then extracted for protein and RNA. The protein samples were saved for analysis of HO-1 levels, and the RNA samples were subjected to RT-PCR to quantify HO-1 mRNA as well as levels of other stress gene mRNAs (e.g. NGAL, haptoglobin, hemopexin, hepicidin).
Myoglobin+SnPP: To 5 mg of dry myoglobin was added 0.9 ml of PBS+0.1 ml of a stock SnPP solution (50 umole/ml). The resulting final concentrations were 5 mg/ml myoglobin+5 umoles/ml of SnPP. The tail vein was injected with 200 ul of this solution, which equals 1 mg myoglobin+1 umole SnPP. […]
[…] To confirm that the myoglobin+SnPP has a synergistic effect in inducing HO-1 mRNA and HO-1 protein levels, each of the above combinations have been administered alone via tail vein injection. […] For additional information regarding methods, see Zager et al., Am J Physiol Renal Physiol. 2014 Jul. 30. Pii.

IL-10 mRNA = assay: Cardiac IL-10 mRNA (RT-PCR)
Procedure: as §1

IL-10 protein = assay: Kidney IL-10 protein (ELISA)
Procedure: as §1

haptoglobin protein [3] = assay: Kidney haptoglobin protein (ELISA)
Procedure: as §1

HO-1 protein = assay: Cardiac HO-1 protein (ELISA); details: 18 h after IV injection
Procedure: as §1

haptoglobin mRNA [4] = assay: Cardiac haptoglobin mRNA (RT-PCR)
Procedure: as §1

[5] = 4 h after IV injection, N-Mgb 1 mg, SnPP 1 mmol [sic]

In the case of `C=Cc1c2[n-]c(c1C)/C=c1\[n-]/c(c(C)c1C=C)=C\c1[n-]c(c(CCC(=O)O)c1C)/C=c1\[n-]c(c(C)c1CCC(=O)O)=C2.[Sn+4]` [SnPP, tin protoporphyrin], the “Liver mRNA Haptoglobin” value (haptoglobin mRNA [1]; 4 h after IV injection) is reported as 0.32 ± 0.02, the “Liver mRNA Haptoglobin” value (haptoglobin mRNA [1]; 18 h after IV injection) is reported as 0.65 ± 0.17 and the “Liver protein Haptoglobin” value (haptoglobin protein [2]; 4 h after IV injection) is reported as 130.0 ± 8.9. The “Liver protein Haptoglobin” value (haptoglobin protein [2]; 18 h after IV injection) was 212.0 ± 63.6, the “HO-1/GAPDH mRNA, Average” value (HO-1 mRNA) was 6.94 and the “HO-1/GAPDH mRNA, individual mice” value (HO-1 mRNA) was 9.72 and 8.25 and 6.95 and 2.85. The “Cardiac mRNA IL-10” value (IL-10 mRNA; 4 h after IV injection) was 0.58 ± 0.16, the “Cardiac mRNA IL-10” value (IL-10 mRNA; 18 h after IV injection) was 0.53 ± 0.10 and the “Kidney IL-10 protein” value (IL-10 protein; [5]) was 550 ± 86. The “Kidney protein IL-10” value (IL-10 protein; 18 h after IV injection) was 454 ± 51, the “Renal IL-10 protein increase, in words” value (IL-10 protein; 18 hours, agent alone) was “absence of IL-10 protein increases” and the “Kidney Haptoglobin protein” value (haptoglobin protein [3]; [5]) was 13.1 ± 1.3. For the same compound, the “Kidney protein Haptoglobin” value (haptoglobin protein [3]; 18 h after IV injection) was 53.5 ± 17.2, the “Cardiac protein HO-1” value (HO-1 protein) was 2.67 ± 0.4 and the “Cardiac mRNA Haptoglobin” value (haptoglobin mRNA [4]; 4 h after IV injection) was 0.52 ± 0.21. For the same compound, the “Cardiac mRNA Haptoglobin” value (haptoglobin mRNA [4]; 18 h after IV injection) was 0.59 ± 0.17.

Reference: patent US20190358242A1, “COMPOSITIONS, KITS, AND METHODS TO INDUCE ACQUIRED CYTORESISTANCE USING STRESS PROTEIN INDUCERS” (FRED HUTCHINSON CANCER RESEARCH CENTER, priority 2017, published 2019)
